Test results: patent US8575145B2, “Triazolopyridine compounds as PIM kinase inhibitors” (Array BioPharma Inc., priority 2008, dated 2013)
pIC50: −log10 of the molar value. Structures can show the parent of a compound that is named as a salt. Where two headings read alike, the source gives them in different places.

Assays:
PIM-1 = PIM-1 (Homo sapiens (Human), UniProt P11309); test: PIM-1 Enzyme Assay; format: biochemical; settings: 35 μM ATP, 0.25 nM PIM-1
Procedure, shortened: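 Radiometric kinase assay in 20 mM K+MOPS pH 7.4, 10 mM MgCl2, 0.005% Tween-20, 1 mM DTT, 2% DMSO final; 60 min at 22° C, stopped with H3PO4, product captured on P81 filter and counted by scintillation. IC50 from 4-parameter logistic fit of percent of control.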

recombinant rat PIM-3 = recombinant rat PIM-3 (Rattus norvegicus (Rat), UniProt O70444); test: PIM-3 Enzyme Assay; settings: read-out: PIM-3 IC50, 30 μM ATP, 0.5 nM PIM-3
Experimental: The amount of radiolabeled product is then measured by liquid scintillation counting. The final buffer conditions were as follows: 20 mM K^+MOPS, pH 7.4, 10 mM MgCl2, 0.005% Tween-20, 1 mM DTT. […] Incubations were carried out for 60 min at 22° C. and quenched with 75 μL of 200 mM H3PO4, filtered through a Whatman P81 plate and washed (1×200 μL and 5×100 μL ) with 200 mM H3PO4. Liquid scintillation cocktail (50 μL ) was then added per well, and the plate was counted for 30 s/well using a TopCount NXT.
One-μL aliquots of these were then transferred to the assay mixtures above to give a final concentration of DMSO of 2%. […] For each plate, percent of control (POC) values were calculated for each well. IC50's were estimated from the POC's using a standard 4-parameter logistic model. The IC50 is defined as the concentration of inhibitor at which the POC equals 50 for the fitted curve.

[1] = biological target: GST-tagged recombinant full-length human PIM-2 (Homo sapiens (Human), UniProt Q9P1W9); test: PIM-2 Enzyme Assay; settings: read-out: PIM-2 IC50
GST-tagged recombinant full-length human PIM-2, sequence (Q9P1W9 whole entry): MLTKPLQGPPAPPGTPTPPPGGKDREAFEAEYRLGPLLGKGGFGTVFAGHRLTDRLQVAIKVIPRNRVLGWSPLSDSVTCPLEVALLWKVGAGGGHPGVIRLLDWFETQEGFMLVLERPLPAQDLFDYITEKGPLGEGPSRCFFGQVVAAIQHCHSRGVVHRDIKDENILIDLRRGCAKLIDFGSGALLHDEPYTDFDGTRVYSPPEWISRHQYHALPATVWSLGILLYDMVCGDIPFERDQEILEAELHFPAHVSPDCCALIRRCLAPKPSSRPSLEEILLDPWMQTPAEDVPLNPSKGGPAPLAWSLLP

PIM-1, sequence (P11309 whole entry, species assumed): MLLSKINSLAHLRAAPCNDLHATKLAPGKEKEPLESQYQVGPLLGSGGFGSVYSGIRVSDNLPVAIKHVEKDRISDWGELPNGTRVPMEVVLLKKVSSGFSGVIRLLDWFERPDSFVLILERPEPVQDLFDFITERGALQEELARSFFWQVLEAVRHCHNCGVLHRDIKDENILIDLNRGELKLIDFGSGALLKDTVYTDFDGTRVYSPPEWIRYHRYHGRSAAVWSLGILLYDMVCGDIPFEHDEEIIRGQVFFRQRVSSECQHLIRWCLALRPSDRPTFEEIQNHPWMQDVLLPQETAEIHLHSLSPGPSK

Structure (SMILES)	pIC50 (PIM-1)	pIC50 (recombinant rat PIM-3)	pIC50 ([1]; 4 μM ATP, […] PIM-2)	pIC50 (PIM-1; dihydrochloride)	pIC50 (recombinant rat PIM-3; dihydrochloride)	pIC50 ([1]; 4 μM ATP, […] PIM-2, dihydrochloride)	pIC50 [1]
Fc1cc(OC2CCNCCC2F)c2nc(-c3nnc4ccccn34)ccc2c1 (single isomer, unassigned) [Example 90, cis-2-([1,2,4]triazolo[4,3-a]pyridin-3-yl)-6-fluoro-8-5-fluoroazepan-4-yloxy)quinoline]	9.40	8.70	6.88	–	–	–	–
Fc1cc(OC2CCNCCC2F)c2nc(-c3nnc4ccccn34)ccc2c1 (single isomer, unassigned) [Example 91, trans-2-([1,2,4]triazolo[4,3-a]pyridin-3-yl)-6-fluoro-8-5-fluoroazepan-4-yloxy)quinoline]	9.10	9.05	7.41	–	–	–	–
Cc1ccn2c(-c3ccc4cccc(OC5CCNCCC5F)c4n3)nnc2c1 (single isomer, unassigned) [Example 92, cis-8-5-fluoroazepan-4-yloxy)-2-(7-methyl-[1,2,4]triazolo[4,3-a]pyridin-3-yl)quinoline]	9.00	8.52	6.61	–	–	–	–
Cc1ccc2nnc(-c3ccc4cccc(OC5CCNCCC5F)c4n3)n2c1 (single isomer, unassigned) [Example 99, 8-((trans)-5-fluoroazepan-4-yloxy)-2-(6-methyl-[1,2,4]triazolo[4,3-a]pyridin-3-yl)quinoline dihydrochloride]	–	–	–	7.76	7.40	6.00	–
Cc1ccc2nnc(-c3ccc4cccc(OC5CCNCCC5F)c4n3)n2c1 (single isomer, unassigned) [Example 100, 8-((trans)-5-fluoroazepan-4-yloxy)-2-(6-methyl-[1,2,4]triazolo[4,3-a]pyridin-3-yl)quinoline]	8.82	8.70	6.45	–	–	–	–
Fc1cc(OC2CCNCCC2F)c2nc(-c3nnc4ccccn34)ccc2c1 (single isomer, unassigned) [Example 120, 2-([1,2,4]triazolo[4,3-a]pyridin-3-yl)-6-fluoro-8-((cis)-5-fluoroazepan-4-yloxy)quinoline]	7.96	7.96	6.02	–	–	–	–
Fc1cc(OC2CCNCCC2F)c2nc(-c3nnc4ccccn34)ccc2c1 (single isomer, unassigned) [Example 121, 2-([1,2,4]triazolo[4,3-a]pyridin-3-yl)-6-fluoro-8-(trans-5-fluoroazepan-4-yloxy)quinoline]	7.52	7.79	6.28	–	–	–	–
Cc1ccn2c(-c3ccc4cccc(OC5CCNCCC5F)c4n3)nnc2c1 (single isomer, unassigned) [Example 122, 8-((cis-4,5)-5-fluoroazepan-4-yloxy)-2-(7-methyl-[1,2,4]triazolo[4,3-a]pyridin-3-yl)quinoline]	7.76	7.63	6.00	–	–	–	–
c1cc(OC2CCCNCC2)c2nc(-c3nnc4ccccn34)ccc2c1 (single isomer, unassigned) [Example 127, 2-([1,2,4]triazolo[4,3-a]pyridin-3-yl)-8-(azepan-4-yloxy)quinoline]	8.32	8.17	6.36	–	–	–	–
c1cc(OC2CCCNCC2)c2nc(-c3nnc4ccccn34)ccc2c1 (single isomer, unassigned) [Example 128, 2-([1,2,4]triazolo[4,3-a]pyridin-3-yl)-8-(azepan-4-yloxy)quinoline]	7.72	7.10	6.00	–	–	–	–
c1cc(OC2CCNCC2)c2nc(-c3nnc4ccccn34)ccc2c1 [Example 9, 2-([1,2,4]triazolo[4,3-a]pyridin-3-yl)-8-(piperidin-4-yloxy)quinoline di-trifluoroacetate]	8.40	7.77	–	–	–	–	6.24
CC(C)(CO)COc1cccc2ccc(-c3nnc4cc(CN)ccn34)nc12 [Example 19, 3-(2-(7-(aminomethyl)-[1,2,4]triazolo[4,3-a]pyridin-3-yl)quinolin-8-yloxy)-2,2-dimethylpropan-1-ol]	9.15	8.70	7.77	–	–	–	–
CC(C)COc1cccc2ccc(-c3nnc4cc(CN)ccn34)nc12 [Example 20, (3-(8-isobutoxyquinolin-2-yl)-[1,2,4]triazolo[4,3-a]pyridin-7-yl)methanamine]	8.70	8.30	7.29	–	–	–	–
c1cc(OC2CC3CCC(C2)N3)c2nc(-c3nnc4ccccn34)ccc2c1 (stereo not drawn) [Example 29, 8-(8-azabicyclo[3.2.1]octan-3-yloxy)-2-([1,2,4]triazolo[4,3-a]pyridin-3-yl)quinoline]	8.30	7.52	6.23	–	–	–	–

The next lines start with results.

pIC50 (PIM-1)	pIC50 (recombinant rat PIM-3)	pIC50 ([1]; 4 μM ATP, […] PIM-2)	pIC50 (PIM-1; dihydrochloride)	pIC50 (recombinant rat PIM-3; dihydrochloride)	pIC50 ([1]; 4 μM ATP, […] PIM-2, dihydrochloride)	Structure (SMILES)	pIC50 [1]
8.52	7.60	6.09	–	–	–	O[C@H]1CC[C@H](Nc2cccc3ccc(-c4nnc5ccccn45)nc23)CC1 [Example 3, (trans)-4-(2-([1,2,4]Triazolo[4,3-a]pyridin-3-yl)quinolin-8-ylamino)cyclohexanol]	–
7.66	6.98	5.22	–	–	–	c1cc(N[C@H]2CCNC2)c2nc(-c3nnc4ccccn34)ccc2c1 [Example 4, (S)-2-([1,2,4]Triazolo[4,3-a]pyridin-3-yl)-N-(pyrrolidin-3-yl)quinolin-8-amine]	–
8.30	7.70	5.69	–	–	–	c1cc(N[C@@H]2CCNC2)c2nc(-c3nnc4ccccn34)ccc2c1 [Example 5, (R)-2-([1,2,4]Triazolo[4,3-a]pyridin-3-yl)-N-(pyrrolidin-3-yl)quinolin-8-amine]	–
7.49	6.81	5.00	–	–	–	CC(C)(C)OC(=O)NCCCNc1cccc2ccc(-c3nnc4ccccn34)nc12 [Example 6, tert-Butyl 3-(2-([1,2,4]triazolo[4,3-a]pyridin-3-yl)quinolin-8-ylamino)propylcarbamate]	–
8.30	7.46	5.98	–	–	–	NCCCNc1cccc2ccc(-c3nnc4ccccn34)nc12 [Example 7, N1-(2-([1,2,4]Triazolo[4,3-a]pyridin-3-yl)quinolin-8-yl)propane-1,3-diamine]	–
7.80	7.03	5.25	–	–	–	CC(C)CCN(CCCN)c1cccc2ccc(-c3nnc4ccccn34)nc12 [Example 8, N1-(2-([1,2,4]Triazolo[4,3-a]pyridin-3-yl)quinolin-8-yl)-N1-isopentylpropane-1,3-diamine]	–
7.64	7.48	5.61	–	–	–	c1cc(O[C@@H]2CCNC2)c2nc(-c3nnc4ccccn34)ccc2c1 [Example 11, (R)-2-([1,2,4]Triazolo[4,3-a]pyridin-3-yl)-8-(pyrrolidin-3-yloxy)quinoline]	–
7.52	7.11	5.31	–	–	–	c1cc(O[C@H]2CCNC2)c2nc(-c3nnc4ccccn34)ccc2c1 [Example 12, (S)-2-([1,2,4]Triazolo[4,3-a]pyridin-3-yl)-8-(pyrrolidin-3-yloxy)quinoline]	–
8.70	7.96	6.25	–	–	–	c1cc(OCC2CCNCC2)c2nc(-c3nnc4ccccn34)ccc2c1 [Example 14, 2-([1,2,4]Triazolo[4,3-a]pyridin-3-yl)-8-(piperidin-4-ylmethoxy)quinoline]	–
7.80	6.99	5.37	–	–	–	c1cc(OCCC2CCCCN2)c2nc(-c3nnc4ccccn34)ccc2c1 (stereo not drawn) [Example 15, 2-([1,2,4]Triazolo[4,3-a]pyridin-3-yl)-8-(2-(piperidin-2-yl)ethoxy)quinoline]	–
8.30	7.60	6.30	–	–	–	OCC1(COc2cccc3ccc(-c4nnc5ccccn45)nc23)CC1 [Example 22, (1-((2-([1,2,4]triazolo[4,3-a]pyridin-3-yl)quinolin-8-yloxy)methyl)cyclopropyl)methanol]	–
8.52	7.89	6.50	–	–	–	CCC(Oc1cccc2ccc(-c3nnc4ccccn34)nc12)[C@@H](CC)CN (stereo partly drawn) [Example 30, (2S)-3-(2([1,2,4]triazolo[4,3-a]pyridin-3-yl)quinolin-8-yloxy)-2-ethylpentan-1-amine]	–
8.40	7.72	6.38	–	–	–	CCC(Oc1cccc2ccc(-c3nnc4ccccn34)nc12)[C@H](CC)CN (stereo partly drawn) [Example 31, (2R)-3-(2-([1,2,4]triazolo[4,3-a]pyridin-3-yl)quinolin-8-yloxy)-2-ethylpentan-1-amine]	–
8.40	7.77	6.40	–	–	–	CC[C@@H](CN)C(C)Oc1cccc2ccc(-c3nnc4ccccn34)nc12 (stereo partly drawn) [Example 32, (2S)-3-(2-([1,2,4]triazolo[4,3-a]pyridin-3-yl)quinolin-8-yloxy)-2-ethylbutan-1-amine]	–
8.30	7.72	6.55	–	–	–	CC[C@H](CN)C(C)Oc1cccc2ccc(-c3nnc4ccccn34)nc12 (stereo partly drawn) [Example 33, (2R)-3-(2-([1,2,4]triazolo[4,3-a]pyridin-3-yl)quinolin-8-yloxy)-2-ethylbutan-1-amine]	–
7.89	7.29	5.87	–	–	–	CCCC(Oc1cccc2ccc(-c3nnc4ccccn34)nc12)[C@@H](CC)CN (stereo partly drawn) [Example 34, (2S)-3-(2-([1,2,4]triazolo[4,3-a]pyridin-3-yl)quinolin-8-yloxy)-2-ethylhexan-1-amine]	–
8.00	7.32	5.87	–	–	–	CCCC(Oc1cccc2ccc(-c3nnc4ccccn34)nc12)[C@H](CC)CN (stereo partly drawn) [Example 35, (2R)-3-(2-([1,2,4]triazolo[4,3-a]pyridin-3-yl)quinolin-8-yloxy)-2-ethylhexan-1-amine]	–
